Data published in US20240228490A1, “HETEROCYCLIC DERIVATIVE INHIBITOR AND PREPARATION METHOD THEREFOR AND APPLICATION THEREOF” (Shanghai Hansoh Biomedical Co., Ltd., priority 2021, published 2024).

Target: PARP1 enzyme (Homo sapiens (Human), UniProt P09874)
Assay: Inhibitory activity on PARP1 enzyme (chemiluminescence)
Assay type: biochemical
Procedure: The inhibitory activity of the compounds on PARP1 enzyme was determined by the chemiluminescence method in the experiment. The experiment was carried out in a 384-well plate. Coating histones in a 384-well plate: 5×histone solution was diluted 5 folds with PBS, added to a 384-well ELISA plate (25 μL per well), and incubated at 4° C. overnight. […] A mixture of PARP reaction biotin-labeled substrate, activated DNA, 10×PARP buffer and water was added (12.5 μL per well). Compound solutions with different concentrations were formulated using the experimental buffer (10% DMSO aqueous solution containing 1.25 mM DTT). The final detection concentration started from 100 nM, with 3-fold dilution and 8 concentrations. The compound solutions were added to the reaction wells of the 384-well plate (2.5 μL per well). 2.5 μL of 10% DMSO aqueous solution containing 1.25 mM DTT was added to the positive control well and blank well (2.5 μL per well). […] The plate was centrifuged at 1000 rpm for 1 minute, and reacted at room temperature for 60 minutes. […] Streptavidin-HRP solution diluted 50 folds with Blocking buffer 3 was added (25 μL per well), and the plate was incubated at room temperature for 30 minutes. […] The luminescence reaction solution obtained by mixing ECL substrate A and ELISA ECL substrate B (1:1) was added (50 μL per well) for reaction. The chemiluminescence values were measured immediately with a BioTek Synergy H1 or Envision instrument.
The chemiluminescence values were measured with a BioTek Synergy H1 or Envision instrument. The inhibition rate was calculated, and the concentration and inhibition rate were fitted to a nonlinear regression curve using Graphpad Prism software to obtain the IC50 value.

PARP1 enzyme, sequence (P09874 whole entry): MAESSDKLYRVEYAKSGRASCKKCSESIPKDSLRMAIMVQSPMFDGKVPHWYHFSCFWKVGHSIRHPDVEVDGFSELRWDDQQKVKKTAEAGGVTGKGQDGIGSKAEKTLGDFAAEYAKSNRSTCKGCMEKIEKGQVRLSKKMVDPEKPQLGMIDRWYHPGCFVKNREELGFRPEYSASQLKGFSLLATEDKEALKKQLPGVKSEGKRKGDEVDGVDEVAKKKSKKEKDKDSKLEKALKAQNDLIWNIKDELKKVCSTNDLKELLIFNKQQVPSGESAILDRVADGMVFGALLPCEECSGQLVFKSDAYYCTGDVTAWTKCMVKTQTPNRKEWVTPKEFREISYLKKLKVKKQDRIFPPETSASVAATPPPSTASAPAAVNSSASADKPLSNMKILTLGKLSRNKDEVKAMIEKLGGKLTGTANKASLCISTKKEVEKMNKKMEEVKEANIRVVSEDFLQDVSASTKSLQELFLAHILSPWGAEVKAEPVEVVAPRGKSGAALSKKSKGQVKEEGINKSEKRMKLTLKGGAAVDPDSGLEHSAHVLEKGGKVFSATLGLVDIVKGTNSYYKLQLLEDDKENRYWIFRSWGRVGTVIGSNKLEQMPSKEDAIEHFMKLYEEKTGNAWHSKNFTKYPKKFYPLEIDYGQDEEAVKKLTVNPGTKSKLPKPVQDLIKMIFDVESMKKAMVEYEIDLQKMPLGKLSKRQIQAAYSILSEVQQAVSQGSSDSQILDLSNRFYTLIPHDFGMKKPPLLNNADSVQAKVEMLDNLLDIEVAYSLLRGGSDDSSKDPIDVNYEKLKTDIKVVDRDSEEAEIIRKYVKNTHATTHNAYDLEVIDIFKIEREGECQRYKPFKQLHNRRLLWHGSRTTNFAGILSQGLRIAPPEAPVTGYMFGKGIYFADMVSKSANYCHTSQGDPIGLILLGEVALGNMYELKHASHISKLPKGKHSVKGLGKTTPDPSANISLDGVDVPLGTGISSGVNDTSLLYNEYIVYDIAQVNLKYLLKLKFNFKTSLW

Row | Structure (SMILES) | IC50 [nM]
1 | CCc1cc2ncc(CN3CCN(c4ccc5c(c4)CN(C)C5=O)CC3)cc2[nH]c1=O [Example 6, 3-Ethyl-7-((4-(2-methyl-1-oxoisoindolin-5-yl)piperazin-1-yl)methyl)-1,5-naphthyridin-2(1H)-one] | 2.9
2 | CCc1cc2ncc(CN3CCN(c4ccc5c(c4)CNC5=O)CC3)cc2[nH]c1=O [Example 17, 3-Ethyl-7-((4-(1-oxoisoindolin-5-yl)piperazin-1-yl)methyl)-1,5-naphthyridin-2(1H)-one] | 4.5
3 | CCc1cc2ncc(CN3CCN(c4cnc5[nH]ccc5c4)CC3)cc2[nH]c1=O [Example 23, 7-((4-(1H-Pyrrolo[2,3-b]pyridin-5-yl)piperazin-1-yl)methyl)-3-ethyl-1,5-naphthyridin-2(1H)-one] | 3.3
4 | CCc1cc2ncc(CN3CCN(c4ccc5nc(C)[nH]c5c4)CC3)cc2[nH]c1=O [Example 24, 3-Ethyl-7-((4-(2-methyl-1H-benzo[d]imidazol-6-yl)piperazin-1-yl)methyl)-1,5-naphthyridin-2(1H)-one] | 1.7
5 | CCc1cc2ncc(CN3CC=C(c4ccc(C(=O)N[C@H]5CCOC5)nc4)CC3)cc2[nH]c1=O [Example 31, (S)-1′-((7-Ethyl-6-oxo-5,6-dihydro-1,5-naphthyridin-3-yl)methyl)-N-(tetrahydrofuran-3-yl)-1′,2′,3′,6′-tetrahydro-[3,4′-bipyridine]-6-carboxamide] | 1
6 | CCc1cc2ncc(CN3CC=C(c4ccc(C(=O)N[C@@H]5CCOC5)nc4)CC3)cc2[nH]c1=O [Example 32, (R)-1′-((7-Ethyl-6-oxo-5,6-dihydro-1,5-naphthyridin-3-yl)methyl)-N-(tetrahydrofuran-3-yl)-1′,2′,3′,6′-tetrahydro-[3,4′-bipyridine]-6-carboxamide] | 1
7 | CCc1cc2ncc(CN3CC=C(c4ccc(C(=O)NC)c(F)c4)CC3)cc2[nH]c1=O [Example 33, 4-(1-((7-Ethyl-6-oxo-5,6-dihydro-1,5-naphthyridin-3-yl)methyl)-1,2,3,6-tetrahydropyridin-4-yl)-2-fluoro-N-methylbenzamide] | 0.91
8 | CCc1cc2ncc(CN3CC=C(c4ccc(C(=O)NC)nc4OC)CC3)cc2[nH]c1=O [Example 34, 1′-((7-Ethyl-6-oxo-5,6-dihydro-1,5-naphthyridin-3-yl)methyl)-2-methoxy-N-methyl-1′,2′,3′,6′-tetrahydro-[3,4′-bipyridine]-6-carboxamide] | 1.6
9 | CCc1cc2ncc(CN3CC=C(c4ccc(C(=O)NC#N)nc4)CC3)cc2[nH]c1=O [Example 57, N-Cyano-1′-((7-ethyl-6-oxo-5,6-dihydro-1,5-naphthyridin-3-yl)methyl)-1′,2′,3′,6′-tetrahydro-[3,4′-bipyridine]-6-carboxamide] | 2.8
10 | CCc1cc2ncc(CN3CC=C(c4ccc(C(=O)NC)c(F)c4Cl)CC3)cc2[nH]c1=O [Example 65, 3-Chloro-4-(1-((7-ethyl-6-oxo-5,6-dihydro-1,5-naphthyridin-3-yl)methyl)-1,2,3,6-tetrahydropyridin-4-yl)-2-fluoro-N-methylbenzamide] | 2.2
11 | CCc1cc2ncc(CN3CC=C(c4ccc(C(=O)NC)c(F)c4C)CC3)cc2[nH]c1=O [Example 66, 4-(1-((7-Ethyl-6-oxo-5,6-dihydro-1,5-naphthyridin-3-yl)methyl)-1,2,3,6-tetrahydropyridin-4-yl)-2-fluoro-N,3-dimethylbenzamide] | 1.7
12 | CCc1cc2ncc(CN3CC=C(c4ccc(C(=O)NC)c(F)c4F)CC3)cc2[nH]c1=O [Example 67, 4-(1-((7-Ethyl-6-oxo-5,6-dihydro-1,5-naphthyridin-3-yl)methyl)-1,2,3,6-tetrahydropyridin-4-yl)-2,3-difluoro-N-methylbenzamide] | 2.1
13 | CCc1cc2ncc(CN3CCN(c4ccc5c(c4)C(=O)N(C)C5=O)CC3)cc2[nH]c1=O [Example 79, 5-(4-((7-Ethyl-6-oxo-5,6-dihydro-1,5-naphthyridin-3-yl)methyl)piperazin-1-yl)-2-methylisoindoline-1,3-dione] | 3.3
14 | CCc1cc2ncc(CN3CCN(c4ccc5c(C(=O)NC)ncn5c4)CC3)cc2[nH]c1=O [Example 80, 6-(4-((7-Ethyl-6-oxo-5,6-dihydro-1,5-naphthyridin-3-yl)methyl)piperazin-1-yl)-N-methylimidazo[1,5-a]pyridine-1-carboxamide] | 5
15 | CCC1Oc2ncc(CN3CC=C(c4ccc(C(=O)NC)nc4Cl)CC3)cc2NC1=O (centres unmarked) [Example 85, 2-Chloro-1′-((3-ethyl-2-oxo-2,3-dihydro-1H-pyrido[2,3-b][1,4]oxazin-7-yl)methyl)-N-methyl-1′,2′,3′,6′-tetrahydro-[3,4′-bipyridine]-6-carboxamide] | 3.5
16 | CCC1Oc2ncc(CN3CC=C(c4ccc(C(=O)NC)nc4C)CC3)cc2NC1=O (centres unmarked) [Example 86, 1′-((3-Ethyl-2-oxo-2,3-dihydro-1H-pyrido[2,3-b][1,4]oxazin-7-yl)methyl)-N,2-dimethyl-1′,2′,3′,6′-tetrahydro-[3,4′-bipyridine]-6-carboxamide] | 5.1
17 | CCC1Oc2ccc(CN3CC=C(c4ccc(C(=O)NC)nc4Cl)CC3)cc2NC1=O (centres unmarked) [Example 87, 2-Chloro-1′-((2-ethyl-3-oxo-3,4-dihydro-2H-benzo[b][1,4]oxazin-6-yl)methyl)-N-methyl-1′,2′,3′,6′-tetrahydro-[3,4′-bipyridine]-6-carboxamide] | 4.9
18 | CCC1Oc2ccc(CN3CC=C(c4ccc(C(=O)NC)nc4C)CC3)cc2NC1=O (centres unmarked) [Example 88, 1′-((2-Ethyl-3-oxo-3,4-dihydro-2H-benzo[b][1,4]oxazin-6-yl)methyl)-N,2-dimethyl-1′,2′,3′,6′-tetrahydro-[3,4′-bipyridine]-6-carboxamide] | 5
19 | CCC1Oc2ncc(CN3CC=C(c4ccc(C(=O)NC)nc4F)CC3)cc2NC1=O (centres unmarked) [Example 90, 1′-((3-Ethyl-2-oxo-2,3-dihydro-1H-pyrido[2,3-b][1,4]oxazin-7-yl)methyl)-2-fluoro-N-methyl-1′,2′,3′,6′-tetrahydro-[3,4′-bipyridine]-6-carboxamide] | 2.7
20 | CCn1c(=O)[nH]c2cc(CN3CC=C(c4ccc(C(=O)NC)nc4F)CC3)ccc2c1=O [Example 91, 1′-((3-Ethyl-2,4-dioxo-1,2,3,4-tetrahydroquinazolin-7-yl)methyl)-2-fluoro-N-methyl-1′,2′,3′,6′-tetrahydro-[3,4′-bipyridine]-6-carboxamide] | 3
